As a reminder, the EC50 is the concentration that produces a half-maximal response. What is called IC50 is the point on the concentration scale where inhibition reaches its midpoint.

Test [1] concerns TNFα production in LPS-stimulated human monocytes. Kind of test: Cot Monocyte TNFα Cell Based Assay. The following applies: Homo sapiens, Monocyte, read-out: EC50 TNF. As to the method:
Example 60: Cot Monocyte TNFα Cell Based Assay
The cell suspension was then plated at a density of 5,000 cells/well onto black 384 well Greiner clear bottom plates. Plates were pre-spotted with test compounds and serially diluted in DMSO where 200 nL/well were delivered using the Echo 550 acoustic liquid dispenser (Labcyte®) for a final DMSO concentration of 0.5%. Plated cells were treated with compound for 1 hour at 37° C. Cells were then stimulated with 50 pg/ml of LPS (Sigma) excluding outside columns of plate used for unstimulated cell control wells. Cells were incubated for an additional 4 hours at 37° C. Cells were then spun out of the media and 5 ul of sample were taken and analyzed for total TNFα content using the TR-FRET Human TNFα detection system (CisBio). This system utilizes two labeled antibodies (cryptate and XL665) that bind to two different epitopes of the TNFα molecule and produce FRET signal proportional to the concentration of TNFα in the sample. Detection antibodies are mixed 50:50 and 5 μL were dispensed into each well. Plates were covered with clear seals and incubated at room temp overnight. […] Percent of control was calculated as follows: % Control=100×(RatioSample−Ratio0% stimulation)/(Ratio100% Stimulation−Ratio0% Stimulation) where unstimulated cells (0% stimulation) were the negative control and stimulated cells (100% stimulation) were used as the positive control.

The target of test [2] is T1, human Cot catalytic domain (30-397 amino acids) (Homo sapiens, UniProt P41279).
T1 construct: Purified recombinant human Cot catalytic domain (30-397 amino acids) was purchased from Cama Biosciences; purchased Cama Biosciences (so in the source)
Kind of test: High Throughput Cot Biochemical Assay (KinEASE TR-FRET). The conditions noted are these: read-out: IC50 HTRF. The gist of the method: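 Phosphorylation of 1 μM XL665-STK3 peptide by 5 nM Cot catalytic domain was measured by time-resolved FRET using a europium […] antibody. ATP was 400 μM; buffer was 10 mM MOPS pH 7.0 with Mg2+ and DTT.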

Setting [3] is: TNFα in LPS-stimulated human monocytes.
Setting [4] is: Cot KinEASE TR-FRET (HTRF) biochemical assay, 400 μM ATP.
Where [5] appears, read: Cot biochemical HTRF (KinEASE TR-FRET) assay.
The mark [6] stands for this setting: LPS-stimulated human monocytes, TNFα TR-FRET.
Where [7] appears, read: Cot KinEASE TR-FRET, 400 μM ATP.

Structures are written as SMILES. Where two headings read alike, the source gives them in different places.

T1 sequence (P41279 30-397): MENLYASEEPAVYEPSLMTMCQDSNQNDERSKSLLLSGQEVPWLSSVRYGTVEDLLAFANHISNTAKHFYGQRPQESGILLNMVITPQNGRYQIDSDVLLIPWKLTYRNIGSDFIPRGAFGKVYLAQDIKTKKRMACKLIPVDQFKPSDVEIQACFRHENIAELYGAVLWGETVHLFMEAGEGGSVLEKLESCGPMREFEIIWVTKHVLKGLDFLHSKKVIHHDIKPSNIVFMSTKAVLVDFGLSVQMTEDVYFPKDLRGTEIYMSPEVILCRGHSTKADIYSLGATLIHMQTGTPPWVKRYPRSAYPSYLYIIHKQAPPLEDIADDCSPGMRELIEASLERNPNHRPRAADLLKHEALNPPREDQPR

On to `N#Cc1cnc2c(Cl)cc(N[C@@H](c3ccc(F)cc3)c3cn(C(F)F)nn3)cc2c1Nc1cnc(F)c(F)c1` [Example 377, (S)-8-chloro-6-(((1-(difluoromethyl)-1H-1,2,3-triazol-4-yl)(4-fluorophenyl)methyl)amino)-4-((5,6-difluoropyridin-3-yl)amino)quinoline-3-carbonitrile], for which the EC50 in test [1] (setting [3]) was greater than 10000 nM. Moreover, in test [2] (setting [4]), the IC50 is 495 nM.
Consider `COc1ncccc1Nc1c(C#N)cnc2c(Cl)cc(N[C@@H](c3ccccc3)c3cn(C4CCN(C(C)(C)C)CC4)nn3)cc12` [Example 480, (S)-6-(((1-(1-(tert-butyl)piperidin-4-yl)-1H-1,2,3-triazol-4-yl)(phenyl)methyl)amino)-8-chloro-4-((2-methoxypyridin-3-yl)amino)quinoline-3-carbonitrile], for which the EC50 in test [1] (setting [3]) stood at 8510 nM. Moreover, the concentration for half-maximal inhibition (IC50) in test [2] (setting [5]) was 1220 nM.
For `[2H]C(Nc1cc(Cl)c2ncc(C#N)c(N[C@H]3CCCCC3(C)C)c2c1)(c1ccc(F)cc1)c1cn(C2CC2)nn1` (stereo in doubt) [Example 319, 8-chloro-6-(((S)-(1-cyclopropyl-1H-1,2,3-triazol-4-yl)(4-fluorophenyl)methyl-d)amino)-4-(((S)-2,2-dimethylcyclohexyl)amino) quinoline-3-carbonitrile], the EC50 in test [1] (setting [3]) is 4480 nM. Further, the IC50 in test [2] (setting [4]) is 372 nM.
On to `[2H][C@](Nc1cc(Cl)c2ncc(C#N)c(N[C@@H]3CCC[C@H](O)C3)c2c1)(c1ccc(F)cc1)c1cn(C2CC2)nn1` [Example 314, 8-chloro-6-(((S)-(1-cyclopropyl-1H-1,2,3-triazol-4-yl)(4-fluorophenyl)methyl-d)amino)-4-(((1R,3S)-3-hydroxycyclohexyl)amino) quinoline-3-carbonitrile], for which the EC50 in test [1] (setting [3]) turned out to be 6390 nM. Further, the IC50 in test [2] (setting [4]) came out at 1330 nM.
With `CC(C)(C)N1CCC(n2cc([C@@H](Nc3cc(Cl)c4ncc(C#N)c(Nc5ccc(F)c(Cl)c5F)c4c3)c3ccc(Cl)cc3)nn2)CC1` [Example 695, (S)-6-(((1-(1-(tert-butyl)piperidin-4-yl)-1H-1,2,3-triazol-4-yl)(4-chlorophenyl)methyl)amino)-8-chloro-4-((3-chloro-2,4-difluorophenyl)amino)quinoline-3-carbonitrile], the EC50 in test [1] (setting [3]) came out at 434 nM. For the same compound, the IC50 in test [2] (setting [5]) came out at 19 nM.
As to `N#Cc1cnc2c(Cl)cc(N[C@@H](c3ccc(F)cc3)c3cn(-c4ccncc4)nn3)cc2c1Nc1cnc(F)c(F)c1` [Example 388, (S)-8-chloro-4-((5,6-difluoropyridin-3-yl)amino)-6-(((4-fluorophenyl)(1-(pyridin-4-yl)-1H-1,2,3-triazol-4-yl)methyl)amino)quinoline-3-carbonitrile], in test [1] (setting [3]), the concentration for a half-maximal effect (EC50) is 1260 nM. Besides, the IC50 in test [2] (setting [4]) was 83 nM.
Regarding `CC(C)(C)N1CCC(n2cc([C@@H](Nc3cc(Cl)c4ncc(C#N)c(Nc5cccc(F)c5)c4c3)c3ccc(Cl)cc3)nn2)CC1` [Example 767, (S)-6-(((1-(1-(tert-butyl)piperidin-4-yl)-1H-1,2,3-triazol-4-yl)(4-chlorophenyl)methyl)amino)-8-chloro-4-((3-fluorophenyl)amino)quinoline-3-carbonitrile], the EC50 in test [1] (setting [3]) worked out at 1270 nM. The IC50 in test [2] (setting [5]) amounted to 48 nM.
Taken in the same sequence, the figures for `Cn1ccnc1-c1cccc([C@H](Nc2cc(Cl)c3ncc(C#N)c(Nc4ccc(F)c(Cl)c4)c3c2)c2cn(C3CCN(C(C)(C)C)CC3)nn2)c1` [Example 630, (S)-6-(((1-(1-(tert-butyl)piperidin-4-yl)-1H-1,2,3-triazol-4-yl)(3-(1-methyl-1H-imidazol-2-yl)phenyl)methyl)amino)-8-chloro-4-((3-chloro-4-fluorophenyl)amino)quinoline-3-carbonitrile] were 1630 nM and 3 nM.
`Cc1c(-c2ccn(C)n2)cccc1[C@H](Nc1cc(Cl)c2ncc(C#N)c(NCC(C)(C)C)c2c1)c1cn(C2(C(F)(F)F)CC2)nn1` [Example 1162, (S)-8-chloro-6-(((2-methyl-3-(1-methyl-1H-pyrazol-3-yl)phenyl) (1-(1-(trifluoromethyl)cyclopropyl)-1H-1,2,3-triazol-4-yl)methyl)amino)-4-(neopentylamino)quinoline-3-carbonitrile]: in test [1] (setting [6]), the EC50 turned out to be 477 nM. Further, the IC50 in test [2] (setting [7]) was determined as 16 nM.
As for `CC(C)(C)N1CCC(n2cc([C@@H](Nc3cc(Cl)c4ncc(C#N)c(Nc5cccc(C#N)c5)c4c3)c3ccc(Cl)cc3)nn2)CC1` [Example 753, (S)-6-(((1-(1-(tert-butyl)piperidin-4-yl)-1H-1,2,3-triazol-4-yl)(4-chlorophenyl)methyl)amino)-8-chloro-4-((3-cyanophenyl)amino)quinoline-3-carbonitrile], in test [1] (setting [3]), the half-maximal effective concentration (EC50) was 1680 nM. The IC50 in test [2] (setting [5]) was 88 nM.
With `Cc1c(C#N)cccc1[C@H](Nc1cc(Cl)c2ncc(C#N)c(NCC(C)(C)C)c2c1)c1cn(C2(C(N)=O)CC2)nn1` [Example 1008, (S)-1-(4-(((8-chloro-3-cyano-4-(neopentylamino)quinolin-6-yl)amino)(3-cyano-2-methylphenyl)methyl)-1H-1,2,3-triazol-1-yl)cyclopropane-1-carboxamide], in test [1] (setting [6]), the concentration giving a half-maximal response (EC50) is 123 nM. The IC50 in test [2] (setting [7]) is 1 nM.
Taken in the same sequence, the figures for `[2H][C@](Nc1cc(Cl)c2ncc(C#N)c(NCC(C)(C)C)c2c1)(c1cn(C2(CO)COC2)nn1)c1ccccc1Cl` [Example 965, 8-chloro-6-(((2-chlorophenyl) (1-(3-(hydroxymethyl)oxetan-3-yl)-1H-1,2,3-triazol-4-yl)methyl-d)amino)-4-(neopentylamino) quinoline-3-carbonitrile] were 286 nM and 14 nM.
Consider `CC(C)(C)CNc1c(C#N)cnc2c(C#N)cc(N[C@H](c3cn(C4(C(N)=O)CCC4)nn3)c3ccccc3Cl)cc12` [Example 1014, (S)-1-(4-((2-chlorophenyl) ((3,8-dicyano-4-(neopentylamino)quinolin-6-yl)amino)methyl)-1H-1,2,3-triazol-1-yl)cyclobutane-1-carboxamide], for which the EC50 in test [1] (setting [6]) came out at 106 nM. Moreover, in test [2] (setting [7]), the half-maximal inhibitory concentration (IC50) came out at 3 nM.
For the compound `[2H][C@](Nc1cc(C#N)c2ncc(C#N)c(N[C@H](CC)c3ccccc3)c2c1)(c1cccc(C#N)c1)c1cn(C2CC2)nn1` [Example 243, 6-(((S)-(3-cyanophenyl)(1-cyclopropyl-1H-1,2,3-triazol-4-yl)methyl-d)amino)-4-(((R)-1-phenylpropyl)amino)quinoline-3,8-dicarbonitrile], in test [1] (setting [3]), the EC50 was 41 nM. The IC50 in test [2] (setting [4]) turned out to be 2 nM.
Take `CCN1CC[C@@H](n2cc([C@@H](Nc3cc(Cl)c4ncc(C#N)c(Nc5ccc(F)c(Cl)c5)c4c3)c3ccccc3)nn2)[C@H](O)C1` [Example 514, 8-chloro-4-((3-chloro-4-fluorophenyl)amino)-6-(((S)-(1-((3R,4R)-1-ethyl-3-hydroxypiperidin-4-yl)-1H-1,2,3-triazol-4-yl)(phenyl)methyl)amino) quinoline-3-carbonitrile]: the EC50 in test [1] (setting [3]) was 62 nM. Besides, in test [2] (setting [5]), the 50% inhibitory concentration (IC50) turned out to be 2 nM.
Consider `Cn1nccc1CNc1c(C#N)cnc2c(Cl)cc(N[C@@H](c3ccccc3)c3cn(C4CCN(C(C)(C)C)CC4)nn3)cc12` [Example 477, (S)-6-(((1-(1-(tert-butyl)piperidin-4-yl)-1H-1,2,3-triazol-4-yl)(phenyl)methyl)amino)-8-chloro-4-(((1-methyl-1H-pyrazol-5-yl)methyl)amino)quinoline-3-carbonitrile], for which the EC50 in test [1] (setting [3]) stood at 6650 nM. The IC50 in test [2] (setting [5]) turned out to be 243 nM.
Take `N#Cc1cnc2c(Cl)cc(N[C@@H](c3cccc(N4CCCC4=O)c3)c3c[nH]nn3)cc2c1Nc1ccc(Cl)c(Cl)c1F` [Example 531, (S)-8-chloro-4-((3,4-dichloro-2-fluorophenyl)amino)-6-(((3-(2-oxopyrrolidin-1-yl)phenyl)(1H-1,2,3-triazol-4-yl)methyl)amino)quinoline-3-carbonitrile]: the EC50 in test [1] (setting [3]) came to 491 nM. In addition, the IC50 in test [2] (setting [5]) was 16 nM.
With `[2H][C@](Nc1cc(Cl)c2ncc(C#N)c(NCC(C)(C)CC)c2c1)(c1ccc(F)cc1)c1cn(C2CC2)nn1` [Example 223, (S)-8-chloro-6-(((1-cyclopropyl-1H-1,2,3-triazol-4-yl)(4-fluorophenyl)methyl-d)amino)-4-((2,2-dimethylbutyl)amino)quinoline-3-carbonitrile], in test [1] (setting [3]), the EC50 worked out at 157 nM. Moreover, the IC50 in test [2] (setting [4]) worked out at 5 nM.
With `Cc1c(-c2cnn(C)c2)cccc1[C@H](Nc1cc(Cl)c2ncc(C#N)c(NCC(C)(C)C)c2c1)c1cn(C2(C(F)(F)F)CC2)nn1` [Example 1097, (S)-8-chloro-6-(((2-methyl-3-(1-methyl-1H-pyrazol-4-yl)phenyl) (1-(1-(trifluoromethyl)cyclopropyl)-1H-1,2,3-triazol-4-yl)methyl)amino)-4-(neopentylamino)quinoline-3-carbonitrile], the concentration giving a half-maximal response (EC50) in test [1] (setting [6]) is 166 nM. The IC50 in test [2] (setting [7]) is 9 nM.

The record behind these values is patent publication US10316017B2, “COT modulators and methods of use thereof” (Gilead Sciences, Inc., priority 2015, dated 2019).
